Entries after “also recorded” stand apart in the source; their conditions may differ.
Legend:
[1] = test system: mTORCI; settings: cited from earlier work
[2] = test system: mTORC2; settings: cited from earlier work
[3] = test system: Human serum albumin (HSA); settings: cited from earlier work
[4] = test system: human plasma proteins; settings: cited from earlier work
[5] = Phase I study of oral pazopanib and intravenous nab-sirolimus: safety (adverse events, dose-limiting toxicity, recommended dose); type: in vivo, human; settings: by mouth daily, in combination with nab-sirolimus 30 mg/m^2
From the text: This was a phase I study designed to determine the safety and feasibility of a combination of oral pazopanib hydrochloride and intravenous nab-sirolimus. To obtain preliminary information regarding efficacy, the study had limited enrollment to those patients with advanced/unresectable STS for whom single agent pazopanib was indicated as a therapy.
The primary endpoint of the study was the determination of a maximum-tolerated dose (MTD) and recommended Phase 2 dose of nab-sirolimus combined with pazopanib. Secondary endpoints included characterization of adverse events of the nab-sirolimus/pazopanib combination and descriptive characterization of clinical benefit of the nab-sirolimus/pazopanib combination (objective responses, progression-free survival duration, and clinical benefit rates at 3 and 6 months). Correlative endpoints were included to evaluate the correlation of clinical benefit with baseline mTOR pathway activation status, as assessed by immunohistochemistry for phosphorylated-S6 ribosomal protein, correlation of clinical benefit with baseline tumoral expression of Serum Protein Acidic and Rich in Cysteine (SPARC)/Osteonectin, as assessed by immunohistochemistry, and pharmacokinetics of nab-sirolimus in combination with pazopanib.
If no DLT occurred after two doses, escalation to the next dose level was permitted. […]

[6] = test system: soft-tissue sarcoma; settings: single agent pazopanib, soft-tissue sarcoma patients; cited from earlier work

COc1cccc2cc(-c3nc([C@H]4CC[C@H](C(=O)O)CC4)n4ncnc(N)c34)[nH]c12 [OSI-027]
IC50 [1]: 22 nM
IC50 [2]: 65 nM

CO[C@H]1C[C@@H]2CC[C@@H](C)[C@@](O)(O2)C(=O)C(=O)N2CCCC[C@H]2C(=O)O[C@H]([C@H](C)C[C@@H]2CC[C@@H](O)[C@H](OC)C2)CC(=O)[C@H](C)/C=C(\C)[C@@H](O)[C@@H](OC)C(=O)[C@H](C)C[C@H](C)/C=C/C=C/C=C/1C [Rapamycin, rapamycin]
binding to HSA [3]: bind HSA

CC(=O)O[C@@]12CO[C@@H]1C[C@H](O)[C@@]1(C)C(=O)[C@H](O)C3=C(C)[C@@H](OC(=O)[C@H](O)[C@@H](NC(=O)OC(C)(C)C)c4ccccc4)C[C@@](O)([C@@H](OC(=O)c4ccccc4)[C@H]21)C3(C)C [docetaxel]
binding to human plasma proteins [4]: bind to human plasma proteins

Cc1ccc(Nc2nccc(N(C)c3ccc4c(C)n(C)nc4c3)n2)cc1S(N)(=O)=O [pazopanib]
Recommended Phase 2 dose of pazopanib [5]: 400 mg
overall survival compared to placebo control [6]: did not have a meaningful improvement in overall survival rate; also recorded: not found to provide a significant difference in overall survival
response rate [6]: ~6%

CC(C)c1cccc(C(C)C)c1O [propofol]
binding to HSA [3]: bind HSA

From patent publication US20260315447A1, “COMBINATION THERAPY WITH A MTOR INHIBITOR AND A MULTI-TYROSINE KINASE INHIBITOR FOR TREATING SOFT TISSUE SARCOMA” (ADDi Bioscience, Inc., priority 2023, published 2026)
